Assay results published in PubChem BioAssay AID248 (DTP/NCI, 2004).
“And” between values parts separate entries of the source, which are not always exact repeats. Identical values can stand only once. Inconclusive results and toxic doses are left out. Cut-off read from the data, not from the text of the source: active = T/C of 150% or more; inactive = T/C below 125%.

Tested on: L1210 leukemia ip in BDF1 mice, survival T/C
Experiment: NCI In Vivo Anticancer Drug Screen. Data for tumor model L1210 Leukemia (intraperitoneal) in B6D2F1 (BDF1) mice
Conditions: higher = longer survival
Method in brief: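 Antitumor effect is assessed in tumor-bearing animals. Survival in the compound arm is compared with a vehicle-dosed control arm and expressed as their quotient.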

[1] = endpoint: mean survival time, dose: 100.0 mg/kg/injection, schedule: Q04DX003 (ip), vehicle: saline with Tween-80
[2] = endpoint: mean survival time, dose: 200.0 mg/kg/injection, schedule: Q04DX003 (ip), vehicle: saline with Tween-80
[3] = endpoint: mean survival time, dose: 400.0 mg/kg/injection, schedule: Q04DX003 (ip), vehicle: saline with Tween-80
[4] = endpoint: mean survival time, dose: 100.0 mg/kg/injection, schedule: Q01DX009 (ip), vehicle: Klucel (hydroxypropylcellulose) (HPC)
[5] = endpoint: mean survival time, dose: 200.0 mg/kg/injection, schedule: Q01DX009 (ip), vehicle: Klucel (hydroxypropylcellulose) (HPC)
[6] = endpoint: mean survival time, dose: 100.0 mg/kg/injection, schedule: Q04DX003 (ip), vehicle: Klucel (hydroxypropylcellulose) (HPC)

Measured: T/C

Cc1nc2nc(N)nc(N)c2nc1CN(C)c1ccc(C(=O)NC(CCC(=O)O)C(=O)O)cc1 (stereo not given)
inactive: endpoint: median survival time, dose: 0.39 mg/kg/injection, schedule: Q01DX009 (ip), vehicle: other 100 % of control | endpoint: median survival time, dose: 0.65 mg/kg/injection, schedule: Q01DX009 (ip), vehicle: other 100 % of control | endpoint: median survival time, dose: 1.08 mg/kg/injection, schedule: Q01DX009 (ip), vehicle: other 100 % of control | endpoint: median survival time, dose: 1.8 mg/kg/injection, schedule: Q01DX009 (ip), vehicle: other 100 % of control and 90 % of control | endpoint: median survival time, dose: 5.0 mg/kg/injection, schedule: Q01DX009 (ip), vehicle: other 90 % of control | endpoint: median survival time, dose: 14.0 mg/kg/injection, schedule: Q01DX009 (ip), vehicle: other 100 % of control | endpoint: median survival time, dose: 39.0 mg/kg/injection, schedule: Q01DX009 (ip), vehicle: other 100 % of control | endpoint: median survival time, dose: 108.0 mg/kg/injection, schedule: Q01DX009 (ip), vehicle: other 100 % of control | endpoint: median survival time, dose: 180.0 mg/kg/injection, schedule: Q01DX009 (ip), vehicle: other 110 % of control | endpoint: median survival time, dose: 300.0 mg/kg/injection, schedule: Q01DX009 (ip), vehicle: other 100 % of control

COC1OC(O)C(NC(=O)C(F)(F)F)CC1O (stereo not given)
inactive: endpoint: mean survival time, dose: 50.0 mg/kg/injection, schedule: Q01DX001 (ip), vehicle: saline 103 % of control | endpoint: mean survival time, dose: 100.0 mg/kg/injection, schedule: Q01DX001 (ip), vehicle: saline 97 % of control | endpoint: mean survival time, dose: 200.0 mg/kg/injection, schedule: Q01DX001 (ip), vehicle: saline 103 % of control | endpoint: mean survival time, dose: 400.0 mg/kg/injection, schedule: Q01DX001 (ip), vehicle: saline 91 % of control

Cc1ccc(N2C(=O)CC(Sc3ccccc3N)C2=O)cc1 (stereo not given)
inactive: endpoint: mean survival time, dose: 100.0 mg/kg/injection, schedule: Q01DX009 (ip), vehicle: other 114 % of control | endpoint: mean survival time, dose: 100.0 mg/kg/injection, schedule: Q04DX003 (ip), vehicle: saline 86 % of control | endpoint: mean survival time, dose: 200.0 mg/kg/injection, schedule: Q01DX009 (ip), vehicle: other 110 % of control | endpoint: mean survival time, dose: 400.0 mg/kg/injection, schedule: Q01DX009 (ip), vehicle: other 93 % of control | endpoint: mean survival time, dose: 400.0 mg/kg/injection, schedule: Q04DX003 (ip), vehicle: saline 86 % of control

NC(=O)NC(=O)C1C2C=CC(C2)C1C(=O)NC(N)=O (stereo not given)
inactive: [1] 100 % of control | [2] 100 % of control | [3] 91 % of control

O=C(O)C1(NC2CCCCC2)CCCCC1
inactive: endpoint: mean survival time, dose: 5.0 mg/kg/injection, schedule: Q01DX Z (ip), vehicle: methylcellulose (MC) 104 % of control | endpoint: mean survival time, dose: 10.0 mg/kg/injection, schedule: Q01DX Z (ip), vehicle: methylcellulose (MC) 114 % of control | endpoint: mean survival time, dose: 20.0 mg/kg/injection, schedule: Q01DX Z (ip), vehicle: methylcellulose (MC) 99 % of control | endpoint: mean survival time, dose: 40.0 mg/kg/injection, schedule: Q01DX Z (ip), vehicle: methylcellulose (MC) 100 % of control | endpoint: mean survival time, dose: 80.0 mg/kg/injection, schedule: Q01DX Z (ip), vehicle: methylcellulose (MC) 99 % of control

CN(C=O)c1ccc(C(=O)O)cc1
inactive: endpoint: mean survival time, dose: 100.0 mg/kg/injection, schedule: Q01DX001 (ip), vehicle: carboxymethylcellulose (CMC) 123 % of control | endpoint: mean survival time, dose: 200.0 mg/kg/injection, schedule: Q01DX001 (ip), vehicle: carboxymethylcellulose (CMC) 96 % of control | endpoint: mean survival time, dose: 400.0 mg/kg/injection, schedule: Q01DX001 (ip), vehicle: carboxymethylcellulose (CMC) 94 % of control

CC(=N)c1c(O)cc(C)oc1=O
inactive: [1] 108 % of control | [2] 101 % of control | [3] 92 % of control

C[Si](C)(C)OSc1ccccc1[N+](=O)[O-]
inactive: endpoint: mean survival time, dose: 12.5 mg/kg/injection, schedule: Q01DX009 (ip), vehicle: Klucel (hydroxypropylcellulose) (HPC) 93 % of control | endpoint: mean survival time, dose: 25.0 mg/kg/injection, schedule: Q01DX009 (ip), vehicle: Klucel (hydroxypropylcellulose) (HPC) 92 % of control | endpoint: mean survival time, dose: 50.0 mg/kg/injection, schedule: Q01DX009 (ip), vehicle: Klucel (hydroxypropylcellulose) (HPC) 93 % of control | [4] 104 % of control | [5] 95 % of control | endpoint: mean survival time, dose: 400.0 mg/kg/injection, schedule: Q01DX009 (ip), vehicle: Klucel (hydroxypropylcellulose) (HPC) 97 % of control

CCC(CO)NC(=O)/C=C/c1ccccc1Cl (stereo not given)
inactive: endpoint: mean survival time, dose: 100.0 mg/kg/injection, schedule: Q01DX001 (ip), vehicle: saline with Tween-80 95 % of control | endpoint: mean survival time, dose: 200.0 mg/kg/injection, schedule: Q01DX001 (ip), vehicle: saline with Tween-80 100 % of control | endpoint: mean survival time, dose: 400.0 mg/kg/injection, schedule: Q01DX001 (ip), vehicle: saline with Tween-80 92 % of control

CCCCOC(=O)CN(C)/N=N/c1nc[nH]c1C(=O)OCC
inactive: endpoint: mean survival time, dose: 25.0 mg/kg/injection, schedule: Q01DX001 (ip), vehicle: Klucel (hydroxypropylcellulose) (HPC) 97 % of control | endpoint: mean survival time, dose: 25.0 mg/kg/injection, schedule: Q04DX003 (ip), vehicle: Klucel (hydroxypropylcellulose) (HPC) 99 % of control | endpoint: mean survival time, dose: 50.0 mg/kg/injection, schedule: Q01DX001 (ip), vehicle: Klucel (hydroxypropylcellulose) (HPC) 97 % of control | endpoint: mean survival time, dose: 50.0 mg/kg/injection, schedule: Q04DX003 (ip), vehicle: Klucel (hydroxypropylcellulose) (HPC) 96 % of control | endpoint: mean survival time, dose: 100.0 mg/kg/injection, schedule: Q01DX001 (ip), vehicle: Klucel (hydroxypropylcellulose) (HPC) 99 % of control and 104 % of control | [6] 94 % of control

COc1c2c(c(C(=O)O)c3ccncc13)CC(C)(C)C2
inactive: endpoint: mean survival time, dose: 50.0 mg/kg/injection, schedule: Q01DX009 (ip), vehicle: saline with Tween-80 102 % of control | endpoint: mean survival time, dose: 100.0 mg/kg/injection, schedule: Q01DX009 (ip), vehicle: saline with Tween-80 98 % of control | endpoint: mean survival time, dose: 200.0 mg/kg/injection, schedule: Q01DX009 (ip), vehicle: saline with Tween-80 101 % of control

NC(=O)c1ccc(OCc2cnc3nc(N)nc(N)c3n2)cc1
inactive: endpoint: mean survival time, dose: 20.0 mg/kg/injection, schedule: Q01DX009 (ip), vehicle: Klucel (hydroxypropylcellulose) (HPC) 98 % of control | endpoint: mean survival time, dose: 40.0 mg/kg/injection, schedule: Q01DX009 (ip), vehicle: Klucel (hydroxypropylcellulose) (HPC) 95 % of control | endpoint: mean survival time, dose: 80.0 mg/kg/injection, schedule: Q01DX009 (ip), vehicle: Klucel (hydroxypropylcellulose) (HPC) 109 % of control

COCC1C2CC(=O)OC2C(I)C1OC(=O)c1ccc(-c2ccccc2)cc1 (stereo not given)
inactive: [6] 100 % of control | endpoint: mean survival time, dose: 200.0 mg/kg/injection, schedule: Q04DX003 (ip), vehicle: Klucel (hydroxypropylcellulose) (HPC) 104 % of control | endpoint: mean survival time, dose: 400.0 mg/kg/injection, schedule: Q04DX003 (ip), vehicle: Klucel (hydroxypropylcellulose) (HPC) 91 % of control

C=CC1C(C(=O)Nc2ccccc2)CN1C (stereo not given)
inactive: [1] 107 % of control | [2] 107 % of control | [3] 116 % of control

CSc1ccc(P(=NS(=O)(=O)c2ccc(C)cc2)(c2ccc(SC)cc2)c2ccc(SC)cc2)cc1
inactive: [4] 104 % of control | [5] 98 % of control

NC(N)=N/C(N)=N\c1nn[nH]n1
inactive: endpoint: mean survival time, dose: 100.0 mg/kg/injection, schedule: Q01DX001 (ip), vehicle: saline sonified 96 % of control | endpoint: mean survival time, dose: 100.0 mg/kg/injection, schedule: Q01DX009 (ip), vehicle: saline sonified 91 % of control | endpoint: mean survival time, dose: 200.0 mg/kg/injection, schedule: Q01DX001 (ip), vehicle: saline sonified 100 % of control | endpoint: mean survival time, dose: 400.0 mg/kg/injection, schedule: Q01DX001 (ip), vehicle: saline sonified 93 % of control | endpoint: mean survival time, dose: 400.0 mg/kg/injection, schedule: Q01DX009 (ip), vehicle: saline sonified 92 % of control

CC(=O)OC(OC(C)=O)c1ccccn1
inactive: endpoint: mean survival time, dose: 75.0 mg/kg/injection, schedule: Q01DX001 (ip), vehicle: saline 94 % of control | endpoint: mean survival time, dose: 150.0 mg/kg/injection, schedule: Q01DX001 (ip), vehicle: saline 96 % of control | endpoint: mean survival time, dose: 300.0 mg/kg/injection, schedule: Q01DX001 (ip), vehicle: saline 93 % of control
